These results are taken from US9914983B2, “Apoptosis-inducing agent” (Nitto Denko Corporation, priority 2012, dated 2018).

In data set [1] the target is Akt1 (Homo sapiens, UniProt P31749). Particulars: known from literature (Barnett 2005, Lindsley 2005, Zhao 2005); cited from earlier work.
Data set [2] concerns the target Akt3 (Homo sapiens, UniProt Q9Y243). Particulars: known from literature (Barnett 2005, Lindsley 2005, Zhao 2005); cited from earlier work.
Data set [3] deals with Akt2 (Homo sapiens, UniProt P31751). To be noted: known from literature (Barnett 2005, Lindsley 2005, Zhao 2005); cited from earlier work.
Data set [4] deals with PANC-1 cells. Kind of data set: Cell morphology / dead cells after siRNA knockdown in PANC-1 cells. In kind it is cell-based. Particulars: double knockdown compared with single. Here is the method:
1×10^6 PANC-1 cells were plated on a 10 cm dish, and culturing was carried out in Roswell Park Memorial Institute 1640 (RPMI 1640, Sigma), to which 10% fetal bovine serum (Fetal bovine serum, FBS) and 5% L-glutamine were added, for 18 hours. Culturing conditions were 37° C. and 5% CO2 unless otherwise specified. Furthermore, 1×10^6 A549 cells were plated on a 10 cm dish, and culturing was carried out in Dulbecco's modified Eagle's medium (DMEM, Sigma), to which 10% FBS and 10% L-glutamine were added, for 18 hours. The respective media were replaced, and 2 hours later 20% to 30% confluent PANC-1 or A549 cells were transfected with GST-π siRNA and/or Akt siRNA using Lipofectamine RNAiMAX (Life Technologies).
A Lipofectamine/siRNA mixed solution for transfection was prepared as follows. First, 35 μL of Lipofectamine RNAiMAX and 965 μL of OPTI-MEM (Sigma) were mixed to thus prepare a Lipofectamine solution. […]
(§1) In order to test the effect when GST-π siRNA and Akt siRNA are made to act at the same time, a Lipofectamine/siRNA mixed solution in which GST-π siRNA and Akt siRNA were mixed was added to each of the cells in the same way as above, and the number of cells was counted. […]

Data set [5] deals with PANC-1 cells. Kind of data set: Cell proliferation (cell counting) after siRNA knockdown in PANC-1 cells. In kind it is cell-based. Particulars: 10 to 50 nM siRNA tested, cell number 4 days after transfection, FIG. 1. On the procedure: (§2) 1×10^6 PANC-1 cells were plated on a 10 cm dish, and culturing was carried out in Roswell Park Memorial Institute 1640 (RPMI 1640, Sigma), to which 10% fetal bovine serum (Fetal bovine serum, FBS) and 5% L-glutamine were added, for 18 hours. Culturing conditions were 37° C. and 5% CO2 unless otherwise specified. Furthermore, 1×10^6 A549 cells were plated on a 10 cm dish, and culturing was carried out in Dulbecco's modified Eagle's medium (DMEM, Sigma), to which 10% FBS and 10% L-glutamine were added, for 18 hours. […]
(§3) In order to optimize the concentration of siRNA, a final concentration of 10 to 50 nM of GST-π siRNA or Akt siRNA was added to a dish containing PANC-1 cells or A549 cells flushed with 10 mL of PTI-MEM, culturing was carried out at room temperature for 5 hours, the medium was replaced (RPMI 1640 containing 5% FBS for PANC-1 cells and DMEM containing 10% FBS for A549 cells), and culturing was carried out for 2 hours. […] Subsequently, every 24 hours, the cells were detached by treatment with trypsin and harvested from the dish, and the number of cells was counted.
as §1

Data set [6] has as its system A549 cells. Description: Cell proliferation (cell counting) after siRNA knockdown in A549 cells. In kind it is cell-based. To be noted: 10 to 50 nM siRNA tested, cell number 4 days after transfection, FIG. 2. On the procedure: as §2, §3, §1
Data set [7] concerns PANC-1 cells. Kind of data set: Autophagy by western blot of LC3 type I/type II shift in PANC-1 cells. Particulars: each siRNA 10 nM, 3 days culture, FIG. 6. In kind it is cell-based. On the procedure: 1×10^6 PANC-1 cells were plated on a 10 cm dish, and culturing was carried out in RPMI 1640, to which 10% FBS and 5% L-glutamine were added, for 24 hours. […] The cells on the dish were washed with ice-cooled PBS, and an ice-cooled Lysis buffer was then added to thus break the cells. The Lysis buffer was prepared by mixing 100 μL of NP-40 Alternative, PROTEIN GRADE® Detergent, 10% Solution, Sterile-Filtered (CALBIOCHEM), 500 μL of 1 M Tris-HCl (pH 7.5), 300 μL of 5 M NaCl, 20 μL of 0.5 M EDTA, and […] of sterile water. The cell lysate was collected using a cell scraper and ice-cooled for 30 minutes. During this process, inversion mixing was carried out every 10 minutes. The solution thus obtained was subjected to centrifugation at 15000 rpm and 4° C. for 15 minutes, and the supernatant was collected, thus giving a cell extract. This cell extract was subjected to western blot analysis. A reaction with a transfer membrane was carried out at 4° C. for 16 hours using anti-LC3B antibody (SIGMA) as a primary antibody. Detection of LC3 molecules was carried out using a chemiluminescent reagent after a reaction with HRP-labeled secondary antibody. Whether or not autophagy was induced was evaluated by a shift to LC3 type I (18 kDa) and type II (16 kDa).
For orientation: Immunoblotting shows a protein as a band on a membrane.

Chain of Akt1 (P31749 whole entry): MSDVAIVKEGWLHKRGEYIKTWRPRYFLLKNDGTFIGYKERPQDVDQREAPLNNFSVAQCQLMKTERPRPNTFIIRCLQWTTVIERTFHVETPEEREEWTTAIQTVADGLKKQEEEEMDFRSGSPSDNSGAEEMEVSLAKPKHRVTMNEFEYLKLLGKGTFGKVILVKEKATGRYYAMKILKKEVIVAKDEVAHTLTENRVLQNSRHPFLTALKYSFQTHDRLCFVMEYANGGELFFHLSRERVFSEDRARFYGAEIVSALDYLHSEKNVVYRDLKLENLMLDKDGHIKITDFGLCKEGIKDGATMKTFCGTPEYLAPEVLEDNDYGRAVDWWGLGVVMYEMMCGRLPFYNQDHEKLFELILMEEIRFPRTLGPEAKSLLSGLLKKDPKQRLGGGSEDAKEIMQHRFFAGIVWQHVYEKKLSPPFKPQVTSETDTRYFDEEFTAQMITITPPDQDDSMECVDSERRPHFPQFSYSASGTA
Chain of Akt2 (P31751 whole entry, species assumed): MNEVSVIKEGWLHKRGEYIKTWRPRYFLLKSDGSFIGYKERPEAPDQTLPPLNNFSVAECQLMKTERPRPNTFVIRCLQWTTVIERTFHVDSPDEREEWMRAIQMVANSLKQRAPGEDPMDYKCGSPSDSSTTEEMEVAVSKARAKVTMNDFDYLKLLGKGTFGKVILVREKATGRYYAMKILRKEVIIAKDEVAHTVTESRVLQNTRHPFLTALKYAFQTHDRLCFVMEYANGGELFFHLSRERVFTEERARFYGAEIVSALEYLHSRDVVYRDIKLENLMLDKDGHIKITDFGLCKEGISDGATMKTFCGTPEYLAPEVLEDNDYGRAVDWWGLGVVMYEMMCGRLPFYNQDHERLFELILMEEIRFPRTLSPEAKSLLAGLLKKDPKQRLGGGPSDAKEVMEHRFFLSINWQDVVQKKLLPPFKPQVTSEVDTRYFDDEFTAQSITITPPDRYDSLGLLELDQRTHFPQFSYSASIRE
Chain of Akt3 (Q9Y243 whole entry, species assumed): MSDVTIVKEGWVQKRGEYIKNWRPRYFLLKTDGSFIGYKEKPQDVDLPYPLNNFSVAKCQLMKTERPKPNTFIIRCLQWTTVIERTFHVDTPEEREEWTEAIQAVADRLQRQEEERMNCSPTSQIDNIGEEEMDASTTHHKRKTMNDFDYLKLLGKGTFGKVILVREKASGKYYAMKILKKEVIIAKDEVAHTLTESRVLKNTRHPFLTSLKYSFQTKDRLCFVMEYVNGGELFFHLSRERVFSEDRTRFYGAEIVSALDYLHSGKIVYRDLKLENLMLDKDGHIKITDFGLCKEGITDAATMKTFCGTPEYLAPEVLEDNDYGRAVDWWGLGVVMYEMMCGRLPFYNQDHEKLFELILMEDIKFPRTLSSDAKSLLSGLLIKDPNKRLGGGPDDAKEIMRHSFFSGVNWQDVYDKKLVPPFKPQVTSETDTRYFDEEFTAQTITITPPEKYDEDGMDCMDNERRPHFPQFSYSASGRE

Take `O=c1[nH]c2ccccc2n1C1CCN(Cc2ccc(-c3nc4cc5[nH]cnc5cc4nc3-c3ccccc3)cc2)CC1` [Akt Inhibitor VIII, 1,3-Dihydro-1-(1-((4-(6-phenyl-1H-imidazo[4,5-g]quinoxalin-7-yl)phenyl)methyl)-4-piperidinyl)-2H-benzimidazol-2-one]: the “effect on activation and phosphorylation of Akt1” value in data set [1] is “selectively blocks activation and phosphorylation”. Moreover, in data set [2], the “inhibition of Akt3” value is reported as “does not inhibit”. The “effect on activation and phosphorylation of Akt2” value in data set [3] is “selectively blocks activation and phosphorylation”.

For “GST-π siRNA: siRNA against GST-π; sense GGGAGGCAAGACCUUCAUUtt (SEQ ID No: 1), antisense AAUGAAGGUCUUGCCUCCCtg (SEQ ID No: 2) (sense GGGAGGCAAGACCUUCAUUTT; antisense AAUGAAGGUCUUGCCUCCCTG; chemistry not given here)”, the “dead cells (floating cells)” value in data set [4] is “a large number of floating cells (dead cells)”. Moreover, the “final concentration at which the cell proliferation inhibition effect almost reaches a plateau” value in data set [5] and in data set [6] was ~30 nM in each case. In addition, the “autophagy (shift of LC3 type I to type II)” value in data set [7] is given as “autophagy induced”.
